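Grown in 96-well plates, cells were treated for 48 hours with each compound at five concentrations. Insufficient inhibition: endpoint recorded as highest concentration tested. At the GI50, growth is halved. The concentration for full growth arrest is given as TGI.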
Assays:
Test in all cases: NCI tumour cell line growth inhibition, 48 h
MOLT-4 leukemia = system: MOLT-4 leukemia
COLO 205 colon = system: COLO 205 colon
SR leukemia = system: SR leukemia
SK-MEL-5 melanoma = system: SK-MEL-5 melanoma
SNB-75 CNS = system: SNB-75 CNS
KM12 colon = system: KM12 colon
SN12C renal = system: SN12C renal
UACC-62 melanoma = system: UACC-62 melanoma
NCI-H226 lung = system: NCI-H226 lung
OVCAR-3 ovarian = system: OVCAR-3 ovarian
SF-268 CNS = system: SF-268 CNS
HT29 colon = system: HT29 colon
EKVX NSCLC = system: EKVX NSCLC
LOX IMVI melanoma = system: LOX IMVI melanoma
RXF 393 renal = system: RXF 393 renal
MDA-MB-231 breast = system: MDA-MB-231 breast
786-0 renal = system: 786-0 renal
CCRF-CEM leukemia = system: CCRF-CEM leukemia
SK-MEL-28 melanoma = system: SK-MEL-28 melanoma
UO-31 renal = system: UO-31 renal
MDA-MB-435 = system: MDA-MB-435
MCF7 breast = system: MCF7 breast
CAKI-1 renal = system: CAKI-1 renal
TK-10 renal = system: TK-10 renal
IGROV1 ovarian = system: IGROV1 ovarian
OVCAR-4 ovarian = system: OVCAR-4 ovarian
T-47D breast = system: T-47D breast
NCI-H522 lung = system: NCI-H522 lung
HOP-92 NSCLC = system: HOP-92 NSCLC
SNB-19 CNS = system: SNB-19 CNS
NCI-H23 lung = system: NCI-H23 lung
DU-145 prostate = system: DU-145 prostate
M14 melanoma = system: M14 melanoma
ACHN renal = system: ACHN renal
SF-539 CNS = system: SF-539 CNS
HCT-116 colon = system: HCT-116 colon
SF-295 CNS = system: SF-295 CNS
PC-3 prostate = system: PC-3 prostate
OVCAR-8 ovarian = system: OVCAR-8 ovarian
OVCAR-5 ovarian = system: OVCAR-5 ovarian
NCI/ADR-RES ovarian = system: NCI/ADR-RES ovarian
SK-MEL-2 melanoma = system: SK-MEL-2 melanoma
HCC-2998 colon = system: HCC-2998 colon
K-562 leukemia = system: K-562 leukemia
A498 renal = system: A498 renal
HCT-15 colon = system: HCT-15 colon
U251 CNS = system: U251 CNS
NCI-H460 lung = system: NCI-H460 lung
HS 578T breast = system: HS 578T breast
MALME-3M melanoma = system: MALME-3M melanoma
RPMI-8226 leukemia = system: RPMI-8226 leukemia
SW-620 colon = system: SW-620 colon
SK-OV-3 ovarian = system: SK-OV-3 ovarian
UACC-257 melanoma = system: UACC-257 melanoma
A549 NSCLC = system: A549 NSCLC
HOP-62 NSCLC = system: HOP-62 NSCLC
BT-549 breast = system: BT-549 breast
HL-60(TB) leukemia = system: HL-60(TB) leukemia

With C[C@@H](Oc1ccc(C(=O)NS(=O)(=O)C(C)(C)C)cc1C(F)(F)F)c1ccc(Oc2ccccc2)cn1 the GI50 (MOLT-4 leukemia) was 3.65 µM, the TGI (MOLT-4 leukemia) was 24.9 µM and the GI50 (COLO 205 colon) was 2.67 µM. The TGI (COLO 205 colon) was 7.95 µM, the GI50 (SR leukemia) was 1.29 µM and the TGI (SR leukemia) was 13.7 µM. It also gave a GI50 (SK-MEL-5 melanoma) of 1.68 µM, a TGI (SK-MEL-5 melanoma) of 4.75 µM and a GI50 (SNB-75 CNS) of 2.04 µM. It also gave a TGI (SNB-75 CNS) of 10.8 µM, a GI50 (KM12 colon) of 2.28 µM and a TGI (KM12 colon) of 11.4 µM. It also gave a GI50 (SN12C renal) of 4.58 µM, a TGI (SN12C renal) of 18.6 µM and a GI50 (UACC-62 melanoma) of 3.09 µM. It also gave a TGI (UACC-62 melanoma) of 19.8 µM, a GI50 (NCI-H226 lung) of 2.76 µM and a TGI (NCI-H226 lung) of 8.5 µM. It also gave a GI50 (OVCAR-3 ovarian) of 1.88 µM, a TGI (OVCAR-3 ovarian) of 5.47 µM and a GI50 (SF-268 CNS) of 3.54 µM. It also gave a TGI (SF-268 CNS) of 17.8 µM, a GI50 (HT29 colon) of 3.1 µM and a TGI (HT29 colon) of 8.38 µM. It also gave a GI50 (EKVX NSCLC) of 4.35 µM, a TGI (EKVX NSCLC) of 20.3 µM and a GI50 (LOX IMVI melanoma) of 2.8 µM. It also gave a TGI (LOX IMVI melanoma) of 10.8 µM, a GI50 (RXF 393 renal) of 2.25 µM and a TGI (RXF 393 renal) of 8.95 µM. It also gave a GI50 (MDA-MB-231 breast) of 3.6 µM, a TGI (MDA-MB-231 breast) of 15.5 µM and a GI50 (786-0 renal) of 3.01 µM. It also gave a TGI (786-0 renal) of 13 µM, a GI50 (CCRF-CEM leukemia) of 2.52 µM and a TGI (CCRF-CEM leukemia) of 16.4 µM. The GI50 (SK-MEL-28 melanoma) was 6.63 µM, the TGI (SK-MEL-28 melanoma) was 21.8 µM and the GI50 (UO-31 renal) was 4.78 µM. For the same molecule, the TGI (UO-31 renal) was 19.9 µM, the GI50 (MDA-MB-435) was 0.585 µM and the TGI (MDA-MB-435) was 2.09 µM. It also gave a GI50 (MCF7 breast) of 2.65 µM, a TGI (MCF7 breast) of 13.6 µM and a GI50 (CAKI-1 renal) of 2.7 µM. For the same molecule, the TGI (CAKI-1 renal) was 17.7 µM, the GI50 (TK-10 renal) was 3.05 µM and the TGI (TK-10 renal) was 14.7 µM. It also gave a GI50 (IGROV1 ovarian) of 2.64 µM, a TGI (IGROV1 ovarian) of 13.7 µM and a GI50 (OVCAR-4 ovarian) of 4.85 µM. It also gave a TGI (OVCAR-4 ovarian) of 19.7 µM, a GI50 (T-47D breast) of 4.46 µM and a TGI (T-47D breast) of 32.5 µM. For the same molecule, the GI50 (NCI-H522 lung) was 1.3 µM, the TGI (NCI-H522 lung) was 5.63 µM and the GI50 (HOP-92 NSCLC) was 1.78 µM. For the same molecule, the TGI (HOP-92 NSCLC) was 11.7 µM, the GI50 (SNB-19 CNS) was 3.02 µM and the TGI (SNB-19 CNS) was 14 µM. The GI50 (NCI-H23 lung) was 5.14 µM, the TGI (NCI-H23 lung) was 23.3 µM and the GI50 (DU-145 prostate) was 3.82 µM. It also gave a TGI (DU-145 prostate) of 14.3 µM, a GI50 (M14 melanoma) of 1.91 µM and a TGI (M14 melanoma) of 7.57 µM. For the same molecule, the GI50 (ACHN renal) was 3.59 µM, the TGI (ACHN renal) was 14.5 µM and the GI50 (SF-539 CNS) was 2.1 µM. The TGI (SF-539 CNS) was 5.62 µM, the GI50 (HCT-116 colon) was 2.48 µM and the TGI (HCT-116 colon) was 11.2 µM. The GI50 (SF-295 CNS) was 2.21 µM, the TGI (SF-295 CNS) was 6.89 µM and the GI50 (PC-3 prostate) was 3.1 µM. It also gave a TGI (PC-3 prostate) of 16.1 µM, a GI50 (OVCAR-8 ovarian) of 3.27 µM and a TGI (OVCAR-8 ovarian) of 12.4 µM. The GI50 (OVCAR-5 ovarian) was 3.46 µM, the TGI (OVCAR-5 ovarian) was 14 µM and the GI50 (NCI/ADR-RES ovarian) was 3.7 µM. The TGI (NCI/ADR-RES ovarian) was 17.2 µM, the GI50 (SK-MEL-2 melanoma) was 6.56 µM and the TGI (SK-MEL-2 melanoma) was 23.3 µM. For the same molecule, the GI50 (HCC-2998 colon) was 2.76 µM, the TGI (HCC-2998 colon) was 11.3 µM and the GI50 (K-562 leukemia) was 1.25 µM. The TGI (K-562 leukemia) was 21 µM, the GI50 (A498 renal) was 1.91 µM and the TGI (A498 renal) was 6.74 µM. The GI50 (HCT-15 colon) was 2.53 µM, the TGI (HCT-15 colon) was 10.5 µM and the GI50 (U251 CNS) was 3.18 µM. It also gave a TGI (U251 CNS) of 13.6 µM, a GI50 (NCI-H460 lung) of 3.7 µM and a TGI (NCI-H460 lung) of 13.3 µM. It also gave a GI50 (HS 578T breast) of 3.27 µM, a TGI (HS 578T breast) of 17.9 µM and a GI50 (MALME-3M melanoma) of 10.8 µM. The TGI (MALME-3M melanoma) was 26.7 µM, the GI50 (RPMI-8226 leukemia) was 2.95 µM and the TGI (RPMI-8226 leukemia) was 9.87 µM. It also gave a GI50 (SW-620 colon) of 3.18 µM, a TGI (SW-620 colon) of 14.6 µM and a GI50 (SK-OV-3 ovarian) of 3.73 µM. It also gave a TGI (SK-OV-3 ovarian) of 15.2 µM, a GI50 (UACC-257 melanoma) of 11.9 µM and a TGI (UACC-257 melanoma) of 32.7 µM. For the same molecule, the GI50 (A549 NSCLC) was 5.31 µM, the TGI (A549 NSCLC) was 20.5 µM and the GI50 (HOP-62 NSCLC) was 3.61 µM. For the same molecule, the TGI (HOP-62 NSCLC) was 17.7 µM, the GI50 (BT-549 breast) was 2.06 µM and the TGI (BT-549 breast) was 5.83 µM. For the same molecule, the GI50 (HL-60(TB) leukemia) was 2.4 µM and the TGI (HL-60(TB) leukemia) was 8.23 µM.
